Legend:
[1] = Inhibition of Mycobacterium tuberculosis shikimate dehydrogenase using shikimic acid as substrate in presence of NADP+ by spectrophotometric analysis
[2] = system: Mycobacterium tuberculosis; experiment: Antibacterial activity against Mycobacterium tuberculosis H37Rv ATCC 25618 after 8 to 9 days by BacT/Alert MP bottle assay; format: functional
[3] = Selectivity index, ratio of IC50 for African green monkey Vero cells to MIC for Mycobacterium tuberculosis H37Rv ATCC 25618; format: toxicity, cell-based; conditions: read-out: Selectivity Index
[4] = Cytotoxicity against human HepG2 cells assessed as reduction in cell viability by Alamar blue assay; format: toxicity, cell-based
[5] = Selectivity index, ratio of IC50 for human HepG2 cells to MIC for Mycobacterium tuberculosis H37Rv ATCC 25618; format: toxicity, cell-based; conditions: read-out: Selectivity Index
[6] = Cytotoxicity against African green monkey Vero cells assessed as reduction in cell viability by Alamar blue assay; format: toxicity, cell-based; conditions: African green monkey (Chlorocebus sabaeus)

Compound | MIC [2] | further results
COc1ccc(C2=Nn3c(nnc3-c3ccncc3)SC2)cc1 | – | IC50 [1]: 20.99 µg/mL
c1ccc(C2=Nn3c(nnc3-c3ccncc3)SC2)cc1 | 8 µg/mL | –
Fc1ccc(C2=Nn3c(Cc4ccc5ccccc5c4)nnc3SC2)cc1 | > 8 µg/mL | –
COc1ccc(C2=Nn3c(nnc3-c3ccc(Cl)cc3)SC2)cc1 | > 8 µg/mL | –
COc1ccc(C2=Nn3c(nnc3-c3ccc(Br)cc3)SC2)cc1 | 8 µg/mL | –
O=[N+]([O-])c1ccc(C2=Nn3c(nnc3-c3ccc(Br)cc3)SC2)cc1 | 0.6 µM | selectivity ratio [3]: 23.2; IC50 [4]: 10.4 µM; selectivity ratio [5]: 17.3; IC50 [6]: 13.9 µM; IC50 [1]: 86.39 µg/mL
COc1ccc(C2=Nn3c(Cc4ccc5ccccc5c4)nnc3SC2)cc1 | > 8 µg/mL | –
c1ccc(C2=Nn3c(nnc3-c3ccccc3)SC2)cc1 | – | IC50 [1]: 28.38 µg/mL
Fc1ccc(C2=Nn3c(nnc3-c3ccc(Cl)cc3)SC2)cc1 | > 8 µg/mL | –
O=[N+]([O-])c1ccc(C2=Nn3c(Cc4ccc5ccccc5c4)nnc3SC2)cc1 | 9.95 µM | selectivity ratio [3]: 7.01; IC50 [4]: 72.6 µM; selectivity ratio [5]: 7.29; IC50 [6]: 69.7 µM; IC50 [1]: 11.68 µg/mL
O=[N+]([O-])c1ccc(C2=Nn3c(nnc3-c3ccncc3F)SC2)cc1 | 2.8 µM | selectivity ratio [3]: 127; IC50 [4]: 166 µM; selectivity ratio [5]: 59.2; IC50 [6]: 355 µM; IC50 [1]: 73.57 µg/mL
O=[N+]([O-])c1ccc(C2=Nn3c(nnc3-c3ccc(Cl)cc3)SC2)cc1 | 8 µg/mL | –
Fc1ccc(C2=Nn3c(nnc3-c3ccc(Br)cc3)SC2)cc1 | > 8 µg/mL | –
Fc1ccc(C2=Nn3c(nnc3-c3ccncc3F)SC2)cc1 | > 8 µg/mL | –
COc1ccc(-c2nnc3n2N=C(c2ccc(F)cc2)CS3)cc1 | > 8 µg/mL | –
Fc1cnccc1-c1nnc2n1N=C(c1ccccc1)CS2 | > 8 µg/mL | –

Compound | MIC [2] | further results
COc1ccc(C2=Nn3c(nnc3-c3ccccc3)SC2)cc1 | > 8 µg/mL | –
c1ccc(C2=Nn3c(Cc4ccc5ccccc5c4)nnc3SC2)cc1 | > 8 µg/mL | –
Fc1ccc(-c2nnc3sc(COc4ccccc4)nn23)cc1 | 24.5 µM | selectivity ratio [3]: 2.9; IC50 [4]: 46.6 µM; selectivity ratio [5]: 1.9; IC50 [6]: 71 µM; IC50 [1]: 23 µg/mL
Fc1ccc(C2=Nn3c(nnc3-c3ccccc3)SC2)cc1 | > 8 µg/mL | –
Clc1ccc(-c2nnc3sc(COc4ccc(Br)cc4)nn23)cc1 | 0.5 µg/mL | –
Clc1ccc(-c2nnc3n2N=C(c2ccccc2)CS3)cc1 | > 8 µg/mL | –
COc1ccc(C2=Nn3c(nnc3-c3ccncc3F)SC2)cc1 | 8 µg/mL | –
Brc1ccc(OCc2nn3c(-c4ccc(Br)cc4)nnc3s2)cc1 | 0.5 µg/mL | –
COc1ccc(-c2nnc3n2N=C(c2ccc([N+](=O)[O-])cc2)CS3)cc1 | > 8 µg/mL | –
COc1ccc(-c2nnc3n2N=C(c2ccccc2)CS3)cc1 | > 8 µg/mL | –
Fc1ccc(C2=Nn3c(nnc3-c3ccncc3)SC2)cc1 | > 8 µg/mL | –
Brc1ccc(-c2nnc3n2N=C(c2ccccc2)CS3)cc1 | 0.67 µM | selectivity ratio [3]: 87.3; IC50 [4]: 235 µM; selectivity ratio [5]: 350; IC50 [6]: 58.5 µM; IC50 [1]: 252.5 µg/mL
O=[N+]([O-])c1ccc(C2=Nn3c(nnc3-c3ccccc3)SC2)cc1 | > 8 µg/mL | –
COc1ccc(C2=Nn3c(nnc3-c3ccc(OC)cc3)SC2)cc1 | > 8 µg/mL | –
NNC(=O)c1ccncc1 [ISONIAZID] | 0.12 µg/mL | –
CO[C@H]1/C=C/O[C@@]2(C)Oc3c(C)c(O)c4c(O)c(c(/C=N/N5CCN(C)CC5)c(O)c4c3C2=O)NC(=O)/C(C)=C\C=C\[C@H](C)[C@H](O)[C@@H](C)[C@@H](O)[C@@H](C)[C@H](OC(C)=O)[C@@H]1C [RIFAMPIN] | 0.25 µg/mL | –

From ChEMBL document CHEMBL3875182 (Bioorg Med Chem, 2017)
